Experimental data taken from article PMC6747318, “Mutual Enhancement of Opioid and Adrenergic Receptors by Combinations of Opioids and Adrenergic Ligands Is Reflected in Molecular Complementarity of Ligands: Drug Development Possibilities” (International Journal of Molecular Sciences, 2019).
“And” between values parts separate entries of the source, which are not always exact repeats. Identical values can stand only once. Counter-ions that a name gives are not always drawn.

Biological target: not listed separately
Experiment: UV spectroscopy binding between compounds: binding to ascorbic acid
Conditions: read-out: Kd @ 200 nm, binding to Asc, pH 7.4 sodium phosphate buffer

Row | Molecule | Kd [µM]
1 | NCCc1c[nH]c2ccc(O)cc12 [Serotonin] | > 1000

Biological target: not listed separately
Experiment: UV spectroscopy binding between compounds: binding to propranolol
Conditions: read-out: Kd @ 200 nm, binding to Prop; UV spectroscopy, pH 7.4 sodium phosphate buffer; single binding constant

Row | Molecule | Kd [µM]
2 | NCCc1c[nH]c2ccc(O)cc12 [Serotonin] | 100

Biological target: T1, beta 2 adrenergic receptor (B2AR) 97–103 (Homo sapiens, UniProt P07550)
T1 construct: B2AR 97–103
Experiment: UV spectroscopy binding to receptor peptide B2AR 97–103
Conditions: read-out: Kd @ 200 nm, B2AR 97–103
Procedure: (§1) After the solutions were made, a 96-well quartz crystal plate was prepared to be run through the spectrophotometer at room temperature (ca. 24 °C). […] The absorbance of each receptor peptide without the presence of the adrenergic compound was measured as well. The absorbance of each well was measured at every 10 nm increment from 190 nm to 260 nm. The maximum absorbance that can be measured was set to four. Each well had 200 μL of solution, so if the absorbance of one component was being measured, it was diluted by half with a phosphate buffer.
(§2) If the measured absorbance is different than the additive absorbance of each compound, then that indicates some sort of molecular interaction. The binding can be quantified by graphing the difference in absorbance against the concentration of the compound varied to provide a binding curve. The data are analyzed by finding the additive absorbance and plotting the difference between this absorbance and the actual absorbance against the concentration of the adrenergic compound. The absorbance for the phosphate buffer is subtracted for each well before any calculations are done. […] The binding constants were estimated from the half-saturation point.

Row | Molecule | Kd [µM]
3 | CSCC[C@H](NC(=O)[C@H](Cc1ccccc1)NC(=O)CNC(=O)CNC(=O)[C@@H](N)Cc1ccc(O)cc1)C(=O)O [Methionine-Enkephalin, methionine-enkephalin] | 130
4 | NCCc1c[nH]c2ccc(O)cc12 [Serotonin] | 120

Biological target: methionine-enkephalin (Homo sapiens), P01210
Sequence (P01210 whole entry, looked up): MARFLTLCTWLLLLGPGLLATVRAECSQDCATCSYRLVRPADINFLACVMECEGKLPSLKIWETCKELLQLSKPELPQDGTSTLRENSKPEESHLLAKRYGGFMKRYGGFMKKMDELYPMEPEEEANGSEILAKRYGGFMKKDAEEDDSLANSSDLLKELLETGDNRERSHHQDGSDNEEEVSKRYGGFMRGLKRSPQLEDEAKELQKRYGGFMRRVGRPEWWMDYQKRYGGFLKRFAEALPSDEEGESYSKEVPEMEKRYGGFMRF
Experiment: UV spectroscopy
Conditions: modification not given

Row | Molecule | Kd [µM]
5 | STLPFQSVNYL [mu opioid receptor 121-131, P35372] | 90
6 | GAVVMPMNILY [histamine type 1 receptor 77-87, P35367] | 70
7 | RATHQEAINCYANE [beta 2 adrenergic receptor 175-188, P07550] | 700
8 | TIDWSRILDS [insulin receptor 157-166, P06213] | 100
9 | KYRQGSIDCTLTFSHP [mu opioid receptor 211-226, P35372] | 1
10 | NLALADALATST [mu opioid receptor 111-122, P35372] | 80
11 | FWPFGSFCNI [dopamine D1 receptor 89-98, P21728] | 80
12 | VNFSFCQDLHHKCKNSRRQ [insulin receptor 281-299, P06213] | > 1000

Biological target: methionine-enkephalin (Homo sapiens, UniProt P01210)
Experiment: UV spectroscopy binding between compounds: binding to methionine-enkephalin
Design: M-Enk = methionine-enkephalin; purchased Sigma-Aldrich
Conditions: Kd @ 200 nm, binding to M-Enk, UV spectroscopy, pH 7.4 sodium phosphate buffer; single binding constant

Row | Molecule | Kd [µM]
13 | CC(N)Cc1ccccc1 (stereo not shown) [Amphetamine] | 80
14 | NCCc1c[nH]c2ccc(O)cc12 [Serotonin] | 45

Same assay, conditions: Kd @ 200 nm, binding to M-Enk, high affinity binding, double curve, first value

Row | Molecule | Kd
15 | CC(C)NCC(O)COc1cccc2ccccc12 (stereo not shown) [Propranolol] | ~3 µM and 3 µM

Same assay, conditions: read-out: Kd @ 200 nm, binding to M-Enk, low affinity binding; double curve, second value

Row | Molecule | Kd [µM]
16 | CC(C)NCC(O)COc1cccc2ccccc12 (stereo not shown) [Propranolol] | 35

Same assay, conditions: read-out: Kd @ 200 nm, binding to M-Enk, low affinity binding; double curve, second value; listed as propranolol

Row | Molecule | Kd [µM]
17 | CC(C)NCC(O)COc1cccc2ccccc12 (stereo not shown) [Propranolol] | ~35

Biological target: T2, insulin receptor (INSR) 281–299 (Homo sapiens, UniProt P06213)
T2 construct: INSR 281–299
Experiment: UV spectroscopy binding to control peptide INSR 281–299
Conditions: control sequence; read-out: Kd @ 200 nm, INSR 281–299
Procedure: as §1, §2

Row | Molecule | Kd [µM]
18 | CSCC[C@H](NC(=O)[C@H](Cc1ccccc1)NC(=O)CNC(=O)CNC(=O)[C@@H](N)Cc1ccc(O)cc1)C(=O)O [Methionine-Enkephalin, methionine-enkephalin] | > 1000
19 | C=CCN1CC[C@]23c4c5ccc(O)c4O[C@H]2C(=O)CC[C@@]3(O)[C@H]1C5 [Naloxone, naloxone] | > 1000
20 | NCCc1c[nH]c2ccc(O)cc12 [Serotonin] | 900

Biological target: T3, beta 2 adrenergic receptor (B2AR) 175–188 (Homo sapiens, UniProt P07550)
T3 construct: B2AR 175–188
Experiment: UV spectroscopy binding to receptor peptide B2AR 175–188
Conditions: single binding constant; read-out: Kd @ 200 nm, B2AR 175–188
Procedure: as §1, §2

Row | Molecule | Kd [µM]
21 | CSCC[C@H](NC(=O)[C@H](Cc1ccccc1)NC(=O)CNC(=O)CNC(=O)[C@@H](N)Cc1ccc(O)cc1)C(=O)O [Methionine-Enkephalin, methionine-enkephalin] | 700
22 | NCCc1c[nH]c2ccc(O)cc12 [Serotonin] | > 1000

Biological target: histamine type 1 receptor (H1HR) 77–87 (Homo sapiens, UniProt P35367)
Experiment: not given
Conditions: single binding constant; read-out: Kd @ 200 nm, H1HR 77–87

Row | Molecule | Kd [µM]
23 | NCCc1c[nH]c2ccc(O)cc12 [Serotonin] | 75

Biological target: T4, dopamine D1 receptor (D1DR) 170–188 (Homo sapiens, UniProt P21728)
T4 construct: D1DR 170–188
Experiment: UV spectroscopy binding to receptor peptide D1DR 170–188
Conditions: not given

Row | Molecule | Kd [µM]
24 | C=CCN1CC[C@]23c4c5ccc(O)c4O[C@H]2C(=O)CC[C@@]3(O)[C@H]1C5 [Naloxone, naloxone] | 150
25 | CN1CC[C@]23c4c5ccc(O)c4O[C@H]2[C@@H](O)C=C[C@H]3[C@H]1C5 [Morphine, morphine sulfate] | 310

Biological target: not listed separately
Experiment: UV spectroscopy binding between compounds: binding to naloxone
Conditions: pH 7.4 sodium phosphate buffer, read-out: Kd @ 200 nm, binding to NAL

Row | Molecule | Kd [µM]
26 | NCCc1c[nH]c2ccc(O)cc12 [Serotonin] | 60

Biological target: T5, insulin receptor (INSR) 157–166 (Homo sapiens, UniProt P06213)
T5 construct: INSR 157–166
Experiment: UV spectroscopy binding to control peptide INSR 157–166
Conditions: control sequence; read-out: Kd @ 200 nm, INSR 157–166
Procedure: as §1, §2

Row | Molecule | Kd [µM]
27 | CSCC[C@H](NC(=O)[C@H](Cc1ccccc1)NC(=O)CNC(=O)CNC(=O)[C@@H](N)Cc1ccc(O)cc1)C(=O)O [Methionine-Enkephalin, methionine-enkephalin] | 100
28 | NCCc1c[nH]c2ccc(O)cc12 [Serotonin] | 110

Biological target: not listed separately
Experiment: UV spectroscopy binding between compounds: binding to methadone
Conditions: pH 7.4 sodium phosphate buffer, read-out: Kd @ 200 nm, binding to Meth

Row | Molecule | Kd [µM]
29 | NCCc1c[nH]c2ccc(O)cc12 [Serotonin] | 45

Biological target: not listed separately
Experiment: UV spectroscopy binding between compounds: binding to amphetamine
Conditions: read-out: Kd @ 200 nm, binding to Amph; UV spectroscopy, pH 7.4 sodium phosphate buffer; single binding constant

Row | Molecule | Kd [µM]
30 | NCCc1c[nH]c2ccc(O)cc12 [Serotonin] | > 1000

Biological target: not listed separately
Experiment: UV spectroscopy binding between compounds: binding to glucose
Conditions: read-out: Kd @ 200 nm, binding to Glucose, pH 7.4 sodium phosphate buffer

Row | Molecule | Kd [µM]
31 | NCCc1c[nH]c2ccc(O)cc12 [Serotonin] | > 1000

Biological target: MuOPR 121–131 (Homo sapiens, UniProt P35372)
Experiment: not given
Conditions: not given

Row | Molecule | binding to transmembrane peptide Mu 121
32 | CC(N)Cc1ccccc1 (stereo not shown) [Amphetamine] | No binding was observed

Biological target: not listed separately
Experiment: UV spectroscopy binding between compounds: binding to riboflavin
Conditions: pH 7.4 sodium phosphate buffer, read-out: Kd @ 200 nm, binding to Ribo

Row | Molecule | Kd [µM]
33 | NCCc1c[nH]c2ccc(O)cc12 [Serotonin] | 7

Biological target: not listed separately
Experiment: UV spectroscopy binding between compounds: binding to morphine sulfate
Conditions: read-out: Kd @ 200 nm, binding to Morph; UV spectroscopy, pH 7.4 sodium phosphate buffer; single binding constant

Row | Molecule | Kd [µM]
34 | NCCc1c[nH]c2ccc(O)cc12 [Serotonin] | 0.7
